# Experimental data reported in US9145392B2, “Imidazole amines as modulators of kinase activity” (Merck Patent GmbH, priority 2011, dated 2015).
# Assays:
# P70S6K (T412E mutant) = P70S6K (T412E mutant) (Homo sapiens (Human), UniProt P23443, T412E); test: P70S6K enzyme assay; assay type: biochemical; conditions: read-out: IC50 p70S6K
# Outline: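 Phosphorylated product and substrate peptide separated by microfluidic capillary electrophoresis (Caliper LabChip 3000), product peaks resolving before substrate.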
# His-AKT (Full Length) = His-AKT (Full Length) (Homo sapiens (Human), UniProt P31749); test: AKT enzyme assay; assay type: biochemical; conditions: read-out: IC50 AKT
# Sequence of His-AKT (Full Length) (P31749 whole entry): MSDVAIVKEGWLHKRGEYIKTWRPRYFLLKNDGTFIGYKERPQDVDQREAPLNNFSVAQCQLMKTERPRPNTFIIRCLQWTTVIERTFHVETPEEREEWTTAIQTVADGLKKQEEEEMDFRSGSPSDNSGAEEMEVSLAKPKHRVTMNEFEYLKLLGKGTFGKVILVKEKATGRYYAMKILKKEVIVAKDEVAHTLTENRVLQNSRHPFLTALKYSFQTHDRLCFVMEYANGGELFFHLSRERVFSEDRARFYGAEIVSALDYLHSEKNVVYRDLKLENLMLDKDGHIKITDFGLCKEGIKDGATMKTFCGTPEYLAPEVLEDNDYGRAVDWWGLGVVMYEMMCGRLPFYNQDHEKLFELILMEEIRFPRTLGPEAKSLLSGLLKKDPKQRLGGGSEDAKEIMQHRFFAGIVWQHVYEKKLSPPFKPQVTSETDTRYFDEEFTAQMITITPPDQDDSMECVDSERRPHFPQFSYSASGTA
# Sequence of P70S6K (T412E mutant) (P23443 whole entry T412E): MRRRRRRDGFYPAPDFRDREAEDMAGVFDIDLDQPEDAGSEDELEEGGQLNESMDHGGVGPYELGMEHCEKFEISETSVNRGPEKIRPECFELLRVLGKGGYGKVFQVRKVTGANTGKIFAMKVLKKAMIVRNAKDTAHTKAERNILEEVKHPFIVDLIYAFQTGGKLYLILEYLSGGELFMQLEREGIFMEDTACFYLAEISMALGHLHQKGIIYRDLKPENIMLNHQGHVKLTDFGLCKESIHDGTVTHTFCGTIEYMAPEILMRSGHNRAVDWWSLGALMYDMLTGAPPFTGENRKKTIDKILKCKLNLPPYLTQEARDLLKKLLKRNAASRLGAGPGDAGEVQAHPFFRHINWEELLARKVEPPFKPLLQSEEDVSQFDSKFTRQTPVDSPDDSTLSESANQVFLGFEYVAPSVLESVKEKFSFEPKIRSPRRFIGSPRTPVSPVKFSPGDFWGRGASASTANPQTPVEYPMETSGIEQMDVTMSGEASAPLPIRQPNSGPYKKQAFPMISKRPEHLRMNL
smiles,measurement,setting,value
"N#Cc1c(N)ncnc1N1CCC(c2nc(-c3ccc(F)c(C(F)(F)F)c3)cn2CCNC2CCCC2)CC1 [Compound 381, 4-Amino-6-{4-[1-(2-cyclopentylamino-ethyl)-4-(4-fluoro-3-trifluoromethyl-phenyl)-1H-imidazol-2-yl]-piperidin-1-yl}-pyrimidine-5-carbonitrile]",IC50,P70S6K (T412E mutant),1.1 nM
same,IC50,His-AKT (Full Length),0.8 nM
"CCC(C)(C)NCCn1cc(-c2ccc(F)c(C(F)(F)F)c2)nc1C1CCN(c2ncnc(N)c2C#N)CC1 [Compound 382, 4-Amino-6-{4-[1-[2-(1,1-dimethyl-propylamino)-ethyl]-4-(4-fluoro-3-trifluoromethyl-phenyl)-1H-imidazol-2-yl]-piperidin-1-yl}-pyrimidine-5-carbonitrile]",IC50,P70S6K (T412E mutant),1.7 nM
same,IC50,His-AKT (Full Length),4.3 nM
"Cc1cc(-c2cn(CCNCC3CC3)c(C3CCN(c4ncnc(N)c4C(N)=O)CC3)n2)ccc1F [Compound 383, 4-Amino-6-{4-[1-[2-(cyclopropylmethyl-amino)-ethyl]-4-(4-fluoro-3-methyl-phenyl)-1H-imidazol-2-yl]-piperidin-1-yl}-pyrimidine-5-carboxylic acid amide]",IC50,P70S6K (T412E mutant),3.3 nM
same,IC50,His-AKT (Full Length),8.4 nM
"Cc1cc(-c2cn(CCO)c(C3CCN(c4ncnc(N)c4C#N)CC3)n2)ccc1F [Compound 384, 4-Amino-6-{4-[4-(4-fluoro-3-methyl-phenyl)-1-(2-hydroxy-ethyl)-1H-imidazol-2-yl]-piperidin-1-yl}-pyrimidine-5-carbonitrile]",IC50,P70S6K (T412E mutant),1.8 nM
same,IC50,His-AKT (Full Length),440 nM
"Cc1cc(-c2cn(CCN(C)C(C)C)c(C3CCN(c4ncnc(N)c4C(N)=O)CC3)n2)ccc1F [Compound 385, 4-Amino-6-(4-{4-(4-fluoro-3-methyl-phenyl)-1-[2-(isopropyl-methyl-amino)-ethyl]-1H-imidazol-2-yl}-piperidin-1-yl)-pyrimidine-5-carboxylic acid amide]",IC50,P70S6K (T412E mutant),6.2 nM
same,IC50,His-AKT (Full Length),42 nM
"Cc1cc(-c2cn(CCNC(C)C)c(C3CCN(c4ncnc(N)c4C(N)=O)CC3)n2)ccc1F [Compound 386, 4-Amino-6-{4-[4-(4-fluoro-3-methyl-phenyl)-1-(2-isopropylamino-ethyl)-1H-imidazol-2-yl]-piperidin-1-yl}-pyrimidine-5-carboxylic acid amide]",IC50,P70S6K (T412E mutant),2.4 nM
same,IC50,His-AKT (Full Length),15 nM
"NC(=O)c1c(N)ncnc1N1CCC(c2nc(-c3ccc(F)c(C(F)(F)F)c3)cn2CCNC2CCCC2)CC1 [Compound 387, 4-Amino-6-{4-[1-(2-cyclopentylamino-ethyl)-4-(4-fluoro-3-trifluoromethyl-phenyl)-1H-imidazol-2-yl]-piperidin-1-yl}-pyrimidine-5-carboxylic acid amide]",IC50,P70S6K (T412E mutant),1.4 nM
same,IC50,His-AKT (Full Length),8.4 nM
"CCC(C)(C)NCCn1cc(-c2ccc(F)c(C(F)(F)F)c2)nc1C1CCN(c2ncnc(N)c2C(N)=O)CC1 [Compound 388, 4-Amino-6-{4-[1-[2-(1,1-dimethyl-propylamino)-ethyl]-4-(4-fluoro-3-trifluoromethyl-phenyl)-1H-imidazol-2-yl]-piperidin-1-yl}-pyrimidine-5-carboxylic acid amide]",IC50,P70S6K (T412E mutant),2 nM
same,IC50,His-AKT (Full Length),13 nM
"Cc1cc(-c2cn(CCNC3CCCC3)c(C3CCN(c4ncnc(N)c4C#N)CC3)n2)ccc1F [Compound 389, 4-Amino-6-{4-[1-(2-cyclopentylamino-ethyl)-4-(4-fluoro-3-methyl-phenyl)-1H-imidazol-2-yl]-piperidin-1-yl}-pyrimidine-5-carbonitrile]",IC50,P70S6K (T412E mutant),0.9 nM
same,IC50,His-AKT (Full Length),0.7 nM
"Cc1cc(-c2cn(CCNCC(C)C)c(C3CCN(c4ncnc(N)c4C#N)CC3)n2)ccc1F [Compound 390, 4-Amino-6-{4-[4-(4-fluoro-3-methyl-phenyl)-1-(2-isobutylamino-ethyl)-1H-imidazol-2-yl]-piperidin-1-yl}-pyrimidine-5-carbonitrile]",IC50,P70S6K (T412E mutant),1.9 nM
same,IC50,His-AKT (Full Length),1.4 nM
"Cc1cc(-c2cn(CCNC3CCCC3)c(C3CCN(c4ncnc(N)c4C(N)=O)CC3)n2)ccc1F [Compound 391, 4-Amino-6-{4-[1-(2-cyclopentylamino-ethyl)-4-(4-fluoro-3-methyl-phenyl)-1H-imidazol-2-yl]-piperidin-1-yl}-pyrimidine-5-carboxylic acid amide]",IC50,P70S6K (T412E mutant),4 nM
same,IC50,His-AKT (Full Length),5.6 nM
"Cc1cc(-c2cn(CCNCC(C)C)c(C3CCN(c4ncnc(N)c4C(N)=O)CC3)n2)ccc1F [Compound 392, 4-Amino-6-{4-[4-(4-fluoro-3-methyl-phenyl)-1-(2-isobutylamino-ethyl)-1H-imidazol-2-yl]-piperidin-1-yl}-pyrimidine-5-carboxylic acid amide]",IC50,P70S6K (T412E mutant),5.5 nM
same,IC50,His-AKT (Full Length),13 nM
"Cc1cc(-c2cn(CCO)c(C3CCN(c4ncnc(N)c4C(N)=O)CC3)n2)ccc1F [Compound 393, 4-Amino-6-{4-[4-(4-fluoro-3-methyl-phenyl)-1-(2-hydroxy-ethyl)-1H-imidazol-2-yl]-piperidin-1-yl}-pyrimidine-5-carboxylic acid amide]",IC50,P70S6K (T412E mutant),2.8 nM
same,IC50,His-AKT (Full Length),47 nM
"CNCCn1cc(-c2ccc(F)c(C)c2)nc1C1CCN(c2ncnc(N)c2C#N)CC1 [Compound 394, 4-Amino-6-{4-[4-(4-fluoro-3-methyl-phenyl)-1-(2-methylamino-ethyl)-1H-imidazol-2-yl]-piperidin-1-yl}-pyrimidine-5-carbonitrile]",IC50,P70S6K (T412E mutant),0.9 nM
same,IC50,His-AKT (Full Length),1.7 nM
"NC(=O)c1c(N)ncnc1N1CCC(c2nc(-c3ccc(F)c(C(F)(F)F)c3)cn2CCO)CC1 [Compound 395, 4-Amino-6-{4-[4-(4-fluoro-3-trifluoromethyl-phenyl)-1-(2-hydroxy-ethyl)-1H-imidazol-2-yl]-piperidin-1-yl}-pyrimidine-5-carboxylic acid amide]",IC50,P70S6K (T412E mutant),1.6 nM
same,IC50,His-AKT (Full Length),180 nM
"CCOc1c(N)ncnc1N1CCC(c2nc(-c3ccc(F)c(C)c3)cn2CCO)CC1 [Compound 396, 2-[2-[1-(6-Amino-5-ethoxy-pyrimidin-4-yl)-piperidin-4-yl]-4-(4-fluoro-3-methyl-phenyl)-imidazol-1-yl]-ethanol]",IC50,P70S6K (T412E mutant),3.5 nM
same,IC50,His-AKT (Full Length),340 nM
"CNCCn1cc(-c2ccc(F)c(C)c2)nc1C1CCN(c2ncnc(N)c2C(N)=O)CC1 [Compound 397, 4-Amino-6-{4-[4-(4-fluoro-3-methyl-phenyl)-1-(2-methylamino-ethyl)-1H-imidazol-2-yl]-piperidin-1-yl}-pyrimidine-5-carboxylic acid amide]",IC50,P70S6K (T412E mutant),2.5 nM
same,IC50,His-AKT (Full Length),16 nM
"CCOc1c(N)ncnc1N1CCC(c2nc(-c3ccc(F)c(C(F)(F)F)c3)cn2CCNC(C)C)CC1 [Compound 398, 5-Ethoxy-6-{4-[4-(4-fluoro-3-trifluoromethyl-phenyl)-1-(2-isopropylamino-ethyl)-1H-imidazol-2-yl]-piperidin-1-yl}-pyrimidin-4-ylamine]",IC50,P70S6K (T412E mutant),2.1 nM
same,IC50,His-AKT (Full Length),1.5 nM
"Cc1cc(-c2cn(CC3CN(CO)C3)c(C3CCN(c4ncnc(N)c4C(C)C)CC3)n2)ccc1F [Compound 399, {3-[2-[1-(6-Amino-5-isopropyl-pyrimidin-4-yl)-piperidin-4-yl]-4-(4-fluoro-3-methyl-phenyl)-imidazol-1-ylmethyl]-azetidin-1-yl}-methanol]",IC50,P70S6K (T412E mutant),2.5 nM
same,IC50,His-AKT (Full Length),56 nM
"CCc1c(N)ncnc1N1CCC(c2nc(-c3ccc(F)c(C)c3)cn2CC2CN(C)C2)CC1 [Compound 400, 5-Ethyl-6-{4-[4-(4-fluoro-3-methyl-phenyl)-1-(1-methyl-azetidin-3-ylmethyl)-1H-imidazol-2-yl]-piperidin-1-yl}-pyrimidin-4-ylamine]",IC50,P70S6K (T412E mutant),0.06 nM
same,IC50,His-AKT (Full Length),0.3 nM
